From patent US12565494B2, “Inhibitors of human respiratory syncytial virus and metapneumovirus” (priority 2022, dated 2026)
Where two headings read alike, the source gives them in different places.

What was measured:
RSV-A2-GFP virus = assay: microbe, parasite or virus in culture; assay type: cell-based, Human Respiratory Syncytial Virus; conditions: Calu-1 cells, RSV-A2-GFP MOI=1.2, 96 hrs, GFP-expressing cells counted
Summary of the method: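 Assay-ready frozen Calu-1 cells (20,000 cells/mL) were infected with RSV-A2-GFP at MOI 1.2 in DMEM with 2% FBS and exposed to a 10-point 3-fold compound dilution for 96 h at 37 °C. GFP-positive cells were counted by imaging, with same-well CellTiter-Glo for cytotoxicity. IC50 and CC50 came from 4-parameter logistic fits.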

hMPV-GFP virus = assay: microbe, parasite or virus in culture; assay type: cell-based, Human Metapneumovirus; conditions: VERO cells, hMPV-GFP MOI=1.25, 48 hrs, GFP-expressing cells counted
Summary of the method: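 VERO cells infected with GFP-expressing hMPV at MOI 1.25 and exposed to compound in 10-point 3-fold dilutions (typical final 40,300–2 nM) for 48 h at 37 °C. GFP-positive cells counted by imaging; same-well CellTiter-Glo for cytotoxicity. IC50 and CC50 from 4-parameter logistic fits.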

[1] = human respiratory syncytial virus, Calu-1, 96 h, read-out: RSV EC50, Table I Summary of Activities for RSV
[2] = Vero, 48 h, read-out: RSV EC50, Table II Summary of Activities for hMPV
[3] = Table I Summary of Activities for RSV, read-out: RSV EC50
[4] = Table II Summary of Activities for hMPV, read-out: RSV EC50
[5] = read-out: RSV EC50, Table I Summary of Activities for RSV
[6] = read-out: RSV EC50, Table II Summary of Activities for hMPV

| SMILES | EC50 (RSV-A2-GFP virus; [1]) [nM] | EC50 (hMPV-GFP virus; [2]) [nM] | EC50 (RSV-A2-GFP virus; [3]) [nM] | EC50 (hMPV-GFP virus; [4]) [nM] | other results |
| --- | --- | --- | --- | --- | --- |
| CC(N)c1cc(O[C@H]2[C@@H]3CN(C(=O)c4cc(-c5ccon5)nn4C)C[C@@H]32)nc(-c2ccc(F)cc2)c1 (single isomer, unassigned; enantiomer 1) [Example 62A] | < 10 | > 100 |  |  |  |
| Cn1nc(-c2ncco2)cc1C(=O)N1C[C@@H]2[C@H](C1)[C@H]2Oc1cc(-c2ccc(F)cc2)cc(C(C)(C)N)n1 [Example 60, ((1R,5S,6s)-6-((6-(2-aminopropan-2-yl)-4-(4-fluorophenyl)pyridin-2-yl)oxy)-3-azabicyclo[3.1.0]hexan-3-yl)(1-methyl-3-(oxazol-2-yl)-1H-pyrazol-5-yl)methanone] |  |  | < 10 | > 100 |  |
| Cn1nc(-c2ncco2)cc1C(=O)N1C[C@@H]2C(Oc3cc(C(C)(N)CO)cc(-c4ccc(F)cc4)n3)[C@@H]2C1 (single isomer, unassigned; enantiomer 2) [Example 58B] |  |  | < 10 | > 100 |  |
| Cn1nc(-c2cscn2)cc1C(=O)N1C[C@@H]2[C@H](C1)[C@H]2Oc1cc(C(C)(C)N)cc(C2(C)CCCC2)n1 [Example 63, ((1R,5S,6s)-6-((4-(2-aminopropan-2-yl)-6-(1-methylcyclopentyl)pyridin-2-yl)oxy)-3-azabicyclo[3.1.0]hexan-3-yl)(1-methyl-3-(thiazol-4-yl)-1H-pyrazol-5-yl)methanone] | < 10 | > 100 |  |  |  |
| Cn1nc(-c2cscn2)cc1C(=O)N1C[C@@H]2[C@H](C1)[C@H]2Oc1cc(C(C)(N)C(N)=O)cc(-c2ccc(F)cc2)n1 (single isomer, unassigned; ent-2) [Example 49A] | < 10 | > 100 |  |  |  |
| Cn1nc(-n2nccn2)cc1C(=O)N1C[C@@H]2[C@H](C1)[C@H]2Oc1cc(C(C)(C)N)cc(-c2ccc(F)cc2)n1 [Example 68, ((1R,5S,6s)-6-((4-(2-aminopropan-2-yl)-6-(4-fluorophenyl)pyridin-2-yl)oxy)-3-azabicyclo[3.1.0]hexan-3-yl)(1-methyl-3-(2H-1,2,3-triazol-2-yl)-1H-pyrazol-5-yl)methanone] |  |  | < 10 | 10 to 100 |  |
| Cc1nc(-c2ncco2)sc1C(=O)N1C[C@@H]2[C@H](C1)[C@H]2Oc1cc(C(C)(C)N)cc(-c2ccc(F)cc2)n1 [Example 3, ((1R,5S,6s)-6-((4-(2-aminopropan-2-yl)-6-(4-fluorophenyl)pyridin-2-yl)oxy)-3-azabicyclo[3.1.0]hexan-3-yl)(4-methyl-2-(oxazol-2-yl)thiazol-5-yl)methanone] | < 10 | 10 to 100 |  |  |  |
| CC(C)(N)c1cc(O[C@H]2[C@@H]3CN(C(=O)c4cc(-c5cscn5)ns4)C[C@@H]32)nc(-c2ccc(F)cc2)c1 [Example 29, ((1R,5S,6s)-6-((4-(2-aminopropan-2-yl)-6-(4-fluorophenyl)pyridin-2-yl)oxy)-3-azabicyclo[3.1.0]hexan-3-yl)(3-(thiazol-4-yl)isothiazol-5-yl)methanone] |  |  | < 10 | > 100 |  |
| Cn1nc(-c2cscn2)cc1C(=O)N1C[C@H]2[C@H](Oc3cc(C(C)(C)N)cc(N4CCC(C)(C)CC4)n3)[C@@]2(C)C1 (single isomer, unassigned; enantiomer 2) [Example 46B] |  |  |  |  | EC50 (RSV-A2-GFP virus; [5]): < 10 nM; EC50 (hMPV-GFP virus; [6]): > 100 nM |
| Cn1nc(-c2cscn2)c(F)c1C(=O)N1C[C@@H]2[C@H](C1)[C@H]2Oc1cc(C(C)(C)N)cc(-c2ccc(F)cc2)n1 [Example 25, ((1R,5S,6s)-6-((4-(2-aminopropan-2-yl)-6-(4-fluorophenyl)pyridin-2-yl)oxy)-3-azabicyclo[3.1.0]hexan-3-yl)(4-fluoro-1-methyl-3-(thiazol-4-yl)-1H-pyrazol-5-yl)methanone] | < 10 | 10 to 100 |  |  |  |
| Cn1nc(-c2ccon2)cc1C(=O)N1C[C@@H]2[C@H](C1)[C@H]2Oc1cc(C(C)(C)N)cc(-c2ccc(F)cc2)n1 [Example 21, ((1R,5S,6s)-6-((4-(2-aminopropan-2-yl)-6-(4-fluorophenyl)pyridin-2-yl)oxy)-3-azabicyclo[3.1.0]hexan-3-yl)(3-(isoxazol-3-yl)-1-methyl-1H-pyrazol-5-yl)methanone] | < 10 | > 100 |  |  |  |
| CC(N)c1cc(O[C@H]2[C@@H]3CN(C(=O)c4cc(-c5cscn5)nn4C)C[C@@H]32)nc(-c2ccc(F)cc2)c1 (single isomer, unassigned; enantiomer 2) [Example 61B] |  |  |  |  | EC50 (RSV-A2-GFP virus; [5]): < 10 nM; EC50 (hMPV-GFP virus; [6]): > 100 nM |
| Cn1nc(-c2ccon2)cc1C(=O)N1C[C@H]2[C@H](Oc3cc(C(C)(C)N)cc(-c4ccc(F)cc4)n3)[C@@]2(C)C1 (single isomer, unassigned; enantiomer 2) [Example 45B] |  |  |  |  | EC50 (RSV-A2-GFP virus; [5]): < 10 nM; EC50 (hMPV-GFP virus; [6]): > 100 nM |
| Cc1nc(-c2ccco2)sc1C(=O)N1C[C@@H]2[C@H](C1)[C@H]2Oc1cc(C(C)(C)N)cc(-c2ccc(F)cc2)n1 [Example 13, ((1R,5S,6s)-6-((4-(2-aminopropan-2-yl)-6-(4-fluorophenyl)pyridin-2-yl)oxy)-3-azabicyclo[3.1.0]hexan-3-yl)(2-(furan-2-yl)-4-methylthiazol-5-yl)methanone] |  |  | < 10 | 10 to 100 |  |
| Cn1nc(-c2cscn2)cc1C(=O)N1C[C@@H]2[C@H](C1)[C@H]2Oc1cc(C(C)(C)N)cc(OCC23CC(C2)C3)n1 [Example 42, ((1R,5S,6s)-6-((4-(2-aminopropan-2-yl)-6-(bicyclo[1.1.1]pentan-1-ylmethoxy)pyridin-2-yl)oxy)-3-azabicyclo[3.1.0]hexan-3-yl)(1-methyl-3-(thiazol-4-yl)-1H-pyrazol-5-yl)methanone] |  |  | < 10 | > 100 |  |
| Cn1nc(-c2ccon2)cc1C(=O)N1C[C@H]2[C@H](Oc3cc(C(C)(C)N)cc(-c4ccc(F)cc4)n3)[C@@]2(C)C1 (single isomer, unassigned; enantiomer 1) [Example 45A] | < 10 | > 100 |  |  |  |
| CC(C)(N)c1cc(O[C@H]2[C@@H]3CN(C(=O)c4sc(-c5cscn5)nc4C4CC4)C[C@@H]32)nc(-c2ccc(F)cc2)c1 [Example 8, ((1R,5S,6s)-6-((4-(2-aminopropan-2-yl)-6-(4-fluorophenyl)pyridin-2-yl)oxy)-3-azabicyclo[3.1.0]hexan-3-yl)(4-cyclopropyl-[2,4′-bithiazol]-5-yl)methanone] |  |  | < 10 | 10 to 100 |  |
| Cn1nc(-c2ccon2)cc1C(=O)N1C[C@@H]2[C@H](C1)[C@H]2Oc1cc(C(C)(C)N)cc(-c2ccc3c(c2)CC3(F)F)n1 [Example 36, ((1R,5S,6s)-6-((4-(2-aminopropan-2-yl)-6-(7,7-difluorobicyclo[4.2.0]octa-1(6),2,4-trien-3-yl)pyridin-2-yl)oxy)-3-azabicyclo[3.1.0]hexan-3-yl)(3-(isoxazol-3-yl)-1-methyl-1H-pyrazol-5-yl)methanone] |  |  | < 10 | > 100 |  |
| Cn1nc(-c2cscn2)cc1C(=O)N1C[C@@H]2[C@H](C1)[C@H]2Oc1cc(C2(C)CCNC2=O)cc(-c2ccc(F)cc2)n1 (single isomer, unassigned; ent-3) [Example 51B] |  |  |  |  | EC50 (RSV-A2-GFP virus; [5]): < 10 nM; EC50 (hMPV-GFP virus; [6]): > 100 nM |
| Cn1nc(-c2cscn2)cc1C(=O)N1C[C@@H]2[C@H](C1)[C@H]2Oc1cc(C(C)(C)N)cc(C2CCC(C)(C)CC2O)n1 (single isomer, unassigned; enantiomer 1) [Example 66A] | < 10 | > 100 |  |  |  |
| CC(C)(N)c1cc(O[C@H]2[C@@H]3CN(C(=O)c4nc(-c5cscn5)ns4)C[C@@H]32)nc(-c2ccc(F)cc2)c1 [Example 27, ((1R,5S,6s)-6-((4-(2-aminopropan-2-yl)-6-(4-fluorophenyl)pyridin-2-yl)oxy)-3-azabicyclo[3.1.0]hexan-3-yl)(3-(thiazol-4-yl)-1,2,4-thiadiazol-5-yl)methanone] |  |  | 10 to 100 | > 100 |  |
